Experimental data: patent US20140303092A1 (CHIMERIX, INC., priority 2011, published 2014)

How the values were obtained:
[1] = Study HDP-CDV-106: safety and PK in subjects with impaired hepatic function; type: in vivo, human
Description: Subjects with moderate hepatic impairment and matched healthy control subjects with normal hepatic function were enrolled and dosed first in Cohort 1, each receiving a single 200 mg dose of HDP-CDV under fasting conditions. The safety, tolerability and PK data from these subjects was reviewed prior to initiating dosing in subjects with severe hepatic impairment in Cohort 2. The study was conducted at four centers in the USA. Up to approximately 24 male and female subjects were planned to be enrolled in this study, including 8 subjects with moderate hepatic impairment and 8 matched healthy control subjects in Cohort 1 and 8 subjects with severe hepatic impairment in Cohort 2. The severity of hepatic impairment was assessed according to the Child-Pugh-Turcotte (CPT) score. Assessments are as follows: CPT Class B (moderate impairment) has a score of 7 to 9 points; and Class C (severe impairment) has a score of >9 points. For the purposes of this study, Cohort 2 subjects were required to have a CPT score of 10 or 11.

CYP3A = type: in vitro ADME
[2] = mouse, in vivo
[3] = human, in vivo
Description: ESRD patients not on dialysis have no ability to eliminate the metabolite CDV. As such, specific labeling for ESRD patients not currently on dialysis may not be sought. Furthermore, such subjects are/may be excluded from future studies with HDP-CDV.

## CCCCCCCCCCCCCCCCOCCCOP(=O)(O)COC(CO)Cn1ccc(N)nc1=O (centres unmarked) [HDP-CDV]
[1]; human, in vivo
  effect of hepatic impairment on percentage bound to plasma protein: did not affect
[1]; moderate or severe hepatic disease
  need for dose adjustment in hepatic disease: no HDP-CDV dose adjustment is warranted
CYP3A
  inhibition of CYP3A activity in vitro: moderate inhibitor
[2]
  ALT increases in individual animals: up to 5 fold
[3]
  need for dosage adjustment in renal impairment: no adjustment of HDP-CDV dosage is required
